Reference: the supplement of paper PMC11962398

compound: C[C@H]1CNCCN1c1nccc(-c2noc3c2CCC[C@@]32CCCc3sc(N)c(C#N)c32)n1 [BI-2493]; settings: 5 days
Procedure: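 PRISM pooled barcoded cancer cell line viability screen (Broad Institute) with BI-2493 at 8 doses in threefold dilutions from 0.00457 to 10 µmol/L, 5-day treatment; curves fitted per cell line. IC50 is undefined (placeholder) for resistant lines. AUC is capped at 1, and sensitivity is reported as 1 − AUC.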

Question: For RERFLCKJ_LUNG, which “IC50 of cell viability” value is on record?
Answer: Its value is 8.19 µM.

Question: LOVO_LARGE_INTESTINE was tested. Which “IC50 of cell viability” value did it give?
Answer: The value was 1.17 µM.

Question: How did the “IC50 of cell viability” value turn out when MP41_UVEA was run?
Answer: The value was 5.17 µM.

Question: SW780_URINARY_TRACT was tested. Which “IC50 of cell viability” value did it give?
Answer: The value was 3.46 µM.

Question: NCIH650_LUNG was tested. Which “IC50 of cell viability” value did it give?
Answer: The value was 9.27 µM.

Question: How did the “IC50 of cell viability” value turn out when CAPAN2_PANCREAS was run?
Answer: The value was 1.2 µM.

Question: How did the “IC50 of cell viability” value turn out when HEC1_ENDOMETRIUM was run?
Answer: The value was 5.02 µM.

Question: With TC32_BONE as the test system, how does the “IC50 of cell viability” value read?
Answer: The value was 8.86 µM.

Question: With EKVX_LUNG as the test system, how does the “IC50 of cell viability” value read?
Answer: The value was 7.44 µM.

Question: TC71_BONE was tested. Which “IC50 of cell viability” value did it give?
Answer: The value was 9.44 µM.

Question: With CORL23_LUNG as the test system, how does the “IC50 of cell viability” value read?
Answer: The value was 5.82 µM.

Question: With “MOLT16_HAEMATOPOIETIC_AND_LYMPHOID_TISSUE” as the test system, how does the “IC50 of cell viability” value read?
Answer: Its value is 1.81 µM.

Question: With NCIH2122_LUNG as the test system, how does the “IC50 of cell viability” value read?
Answer: Its value is 3.6 µM.

Question: Which “IC50 of cell viability” value does the source give for “BONNA12_HAEMATOPOIETIC_AND_LYMPHOID_TISSUE” here?
Answer: Its value is greater than 10 µM.

Question: With HUPT3_PANCREAS as the test system, how does the “IC50 of cell viability” value read?
Answer: The value was 5.16 µM.

Question: With HEPG2_LIVER as the test system, how does the “IC50 of cell viability” value read?
Answer: The value was 4.13 µM.

Question: RBE_BILIARY_TRACT was tested. Which “IC50 of cell viability” value did it give?
Answer: The value was 2.47 µM.

Question: NCIH1355_LUNG was tested. Which “IC50 of cell viability” value did it give?
Answer: Its value is 2.46 µM.

Question: With 143B_BONE as the test system, how does the “IC50 of cell viability” value read?
Answer: The value was 8.98 µM.

Question: IGR37_SKIN was tested. Which “IC50 of cell viability” value did it give?
Answer: Its value is 8.82 µM.

Question: With 921_UVEA as the test system, how does the “IC50 of cell viability” value read?
Answer: Its value is 4.34 µM.

Question: How did the “IC50 of cell viability” value turn out when A2058_SKIN was run?
Answer: Its value is 5.91 µM.

Question: With BICR78_UPPER_AERODIGESTIVE_TRACT as the test system, how does the “IC50 of cell viability” value read?
Answer: The value was 5.51 µM.

Question: PACADD137_PANCREAS was tested. Which “IC50 of cell viability” value did it give?
Answer: The value was 8.11 µM.

Question: MDAMB453_BREAST was tested. Which “IC50 of cell viability” value did it give?
Answer: Its value is 5.47 µM.

Question: How did the “IC50 of cell viability” value turn out when HTMMT_ENDOMETRIUM was run?
Answer: The value was 5.79 µM.

Question: For EFM19_BREAST, which “IC50 of cell viability” value is on record?
Answer: The value was 8.2 µM.

Question: CHLA200_CENTRAL_NERVOUS_SYSTEM was tested. Which “IC50 of cell viability” value did it give?
Answer: Its value is 9.58 µM.

Question: How did the “IC50 of cell viability” value turn out when SG231_BILIARY_TRACT was run?
Answer: Its value is 2.09 µM.

Question: For HS944T_SKIN, which “IC50 of cell viability” value is on record?
Answer: Its value is 3.82 µM.

Question: With ECC10_STOMACH as the test system, how does the “IC50 of cell viability” value read?
Answer: The value was 4.51 µM.

Question: Which “IC50 of cell viability” value does the source give for TE14_OESOPHAGUS here?
Answer: The value was 9.66 µM.

Question: For CADOES1_BONE, which “IC50 of cell viability” value is on record?
Answer: The value was 9.64 µM.

Question: Which “IC50 of cell viability” value does the source give for BT549_BREAST here?
Answer: The value was 8.89 µM.

Question: Which “IC50 of cell viability” value does the source give for HSC3_UPPER_AERODIGESTIVE_TRACT here?
Answer: Its value is 5.44 µM.

Question: How did the “IC50 of cell viability” value turn out when HEC251_ENDOMETRIUM was run?
Answer: Its value is 3.15 µM.

Question: How did the “IC50 of cell viability” value turn out when MM1S_HAEMATOPOIETIC_AND_LYMPHOID_TISSUE was run?
Answer: The value was 0.558 µM.

Question: With NCIH661_LUNG as the test system, how does the “IC50 of cell viability” value read?
Answer: Its value is 9.34 µM.

Question: For NCIH1944_LUNG, which “IC50 of cell viability” value is on record?
Answer: Its value is 8.69 µM.

Question: With DMS53_LUNG as the test system, how does the “IC50 of cell viability” value read?
Answer: Its value is 6.38 µM.

Question: NCIH1975_LUNG was tested. Which “IC50 of cell viability” value did it give?
Answer: Its value is 6.8 µM.

Question: How did the “IC50 of cell viability” value turn out when HA1E_KIDNEY was run?
Answer: Its value is greater than 10 µM.

Question: Which “IC50 of cell viability” value does the source give for HS294T_SKIN here?
Answer: The value was 5.34 µM.

Question: How did the “IC50 of cell viability” value turn out when ESS1_ENDOMETRIUM was run?
Answer: Its value is 1.43 µM.

Question: How did the “IC50 of cell viability” value turn out when FLO1_OESOPHAGUS was run?
Answer: Its value is 4.86 µM.

Question: Which “IC50 of cell viability” value does the source give for “ALLSIL_HAEMATOPOIETIC_AND_LYMPHOID_TISSUE” here?
Answer: Its value is 9.13 µM.

Question: For SUM149PT_BREAST, which “IC50 of cell viability” value is on record?
Answer: The value was 3.94 µM.

Question: Which “IC50 of cell viability” value does the source give for H413_UPPER_AERODIGESTIVE_TRACT here?
Answer: Its value is greater than 10 µM.

Question: For 697_HAEMATOPOIETIC_AND_LYMPHOID_TISSUE, which “IC50 of cell viability” value is on record?
Answer: Its value is 8.3 µM.

Question: Which “IC50 of cell viability” value does the source give for SIMA_AUTONOMIC_GANGLIA here?
Answer: Its value is greater than 10 µM.

Question: For SW837_LARGE_INTESTINE, which “IC50 of cell viability” value is on record?
Answer: The value was 5.95 µM.

Question: PEDS015T_SOFT_TISSUE was tested. Which “IC50 of cell viability” value did it give?
Answer: The value was greater than 10 µM.

Question: How did the “IC50 of cell viability” value turn out when TT_THYROID was run?
Answer: Its value is 6.45 µM.

Question: For WM88_SKIN, which “IC50 of cell viability” value is on record?
Answer: The value was 8.79 µM.

Question: For SF539_CENTRAL_NERVOUS_SYSTEM, which “IC50 of cell viability” value is on record?
Answer: The value was 9.12 µM.

Question: For “OCIM1_HAEMATOPOIETIC_AND_LYMPHOID_TISSUE”, which “IC50 of cell viability” value is on record?
Answer: The value was 6.84 µM.

Question: How did the “IC50 of cell viability” value turn out when HUH7_LIVER was run?
Answer: The value was 8.94 µM.

Question: How did the “IC50 of cell viability” value turn out when LS513_LARGE_INTESTINE was run?
Answer: Its value is 0.175 µM.

Question: With SW900_LUNG as the test system, how does the “IC50 of cell viability” value read?
Answer: The value was 8.99 µM.

Question: HEC1B_ENDOMETRIUM was tested. Which “IC50 of cell viability” value did it give?
Answer: The value was 3.94 µM.

Question: With HS939T_SKIN as the test system, how does the “IC50 of cell viability” value read?
Answer: Its value is 8.03 µM.

Question: Which “IC50 of cell viability” value does the source give for HCC15_LUNG here?
Answer: Its value is 9.81 µM.

Question: For HUG1N_STOMACH, which “IC50 of cell viability” value is on record?
Answer: The value was 0.544 µM.

Question: For PANC1_PANCREAS, which “IC50 of cell viability” value is on record?
Answer: Its value is 4.69 µM.

Question: How did the “IC50 of cell viability” value turn out when HPAFII_PANCREAS was run?
Answer: The value was 0.582 µM.

Question: How did the “IC50 of cell viability” value turn out when HOTHC_THYROID was run?
Answer: The value was 9.68 µM.

Question: KURAMOCHI_OVARY was tested. Which “IC50 of cell viability” value did it give?
Answer: Its value is greater than 10 µM.

Question: How did the “IC50 of cell viability” value turn out when GSS_STOMACH was run?
Answer: Its value is 3.3 µM.

Question: With KYSE150_OESOPHAGUS as the test system, how does the “IC50 of cell viability” value read?
Answer: The value was 3.68 µM.

Question: Which “IC50 of cell viability” value does the source give for SNU719_STOMACH here?
Answer: The value was 9.46 µM.

Question: Which “IC50 of cell viability” value does the source give for NCIH647_LUNG here?
Answer: The value was 5.65 µM.

Question: Which “IC50 of cell viability” value does the source give for TE617T_SOFT_TISSUE here?
Answer: The value was 3.75 µM.

Question: How did the “IC50 of cell viability” value turn out when KE39_STOMACH was run?
Answer: The value was 1.55 µM.

Question: With NCIH226_LUNG as the test system, how does the “IC50 of cell viability” value read?
Answer: Its value is 5.37 µM.

Question: With HT29_LARGE_INTESTINE as the test system, how does the “IC50 of cell viability” value read?
Answer: Its value is 5.08 µM.

Question: How did the “IC50 of cell viability” value turn out when SNU201_CENTRAL_NERVOUS_SYSTEM was run?
Answer: Its value is greater than 10 µM.
